From US20230167406A1, “COMPOSITIONS AND METHODS OF PROMOTING MYELINATION” (The Children's Medical Center Corporation, priority 2020, published 2023)
“Also recorded” adds a separate entry of the source. Structures can show the parent of a compound that is named as a salt.

Legend:
[1] = test system: regenerated axons in injured optic nerves; experiment: Electron microscopy of myelination of regenerated axons in injured optic nerves; type: in vivo, mouse; conditions: 4 weeks after injury; for regenerated axons that became myelinated: Montelukast dpi1-28 and/or PLX3397 dpi15-28
Description: To do this, AAVs expressing osteopontin/IGF1/CNTF were injected into the vitreous bodies of PDGFRα-CreER:iRTM mice to activate the intrinsic regenerative ability of RGCs and optic nerve injury was performed in 2 weeks. These mice were then treated with Montelukast (for 4 weeks from dpi1 to dpi28) and/or PLX3397 (for two weeks during dpi 15-28).
Mice were perfused with 4% paraformaldehyde with 2.5% glutaraldehyde in 0.1 M sodium cacodylate buffer, pH 7.2. Optic nerves were dissected and fixed in the same fixative solution overnight. Samples were then processed by the Harvard EM core based on the following procedure: nerves were rinsed in PBS, postfixed in 1% OsO4 in PBS for 1 h, dehydrated in a graded ethanol series, infiltrated with propylene oxide, and embedded in Epon. Semithin sections were stained with toluidine blue, and ultrathin sections were stained with lead citrate. Ultrathin sections were taken under JEOL 1200EX-80 kV electron microscope. The number of myelinated axons per nerve was analyzed in ultrathin sections at magnification 3,000× to 20,000×.

[2] = test system: OPCs and their progenies in injured optic nerves; experiment: OPC lineage tracing (CC1/Oligo1 staining of RTM+ cells) in PDGFRα-CreER/iRTM mice after optic nerve crush; type: in vivo, mouse
Description: To trace the progenies of OPCs, a different reporter mouse line was utilized, namely PDGFRα-CreER (Kang et al., Neuron 68, 668-681, 2010) crossed with Rosa26-STOP-Tomato mice, or PDGFRα-CreER/iRTM mice (Arenkiel et al., 2011). Upon tamoxifen administration, Cre expression is induced in PDGFRα^+ OPCs, leading to RTM expression not only in these OPCs but also their differentiated progenies. To monitor their differentiation, two well-documented markers were used, namely CC1 and Oligo1. CC1 is a marker for all differentiated cells from OPCs. The translocation of Oligo1 from the nucleus to the cytoplasm has been implicated as a hallmark of late differentiation into myelinating oligodendrocytes. Therefore, with these immunohistochemistry assessments, these cells could be separated into three stages: un-differentiated OPCs (CC1^− and nuclear Oligo1), early differentiated OPCs (CC1+ and nuclear Oligo1) and mature oligodendrocytes (CC1^+ and cytoplasmic Oligo1) (FIG. 111).
Immediately prior to optic nerve crush, tamoxifen was injected into PDGFRα-CreER/iRTM mice in order to label pre-existing OPCs (Young et al., Neuron 77, 873-885, 2013). Then, the fate of labeled OPCs was examined by immunohistochemistry with anti-CC1 and anti-Oligo1 at 4 weeks after injury (FIG. 1I).
As the majority of OPC proliferation occurs in the first week after injury (FIG. 1), it was hypothesized that a delayed PLX3397 treatment at 2-4 weeks after injury could bypass their inhibition on proliferation, permitting assessment of its effects on OPC differentiation. To do this, a separate experiment was performed in which PLX3397 was administered from 2 to 4 weeks after injury in PDGFRα-CreER:iRTM mice as used in FIGS. 1G-1M, 3L.
For PDGFRα-CreER mice, Tamoxifen (100 mg/kg, p.o.) was administered for 5 days right before optic nerve crush. […] Pexidartinib (PLX 3397) was mixed in food chow at 290 mg/kg by LabDiet laboratory animal nutrition.

[3] = test system: proliferating OPCs in injured optic nerves; experiment: In vivo compound screening for OPC differentiation (BrdU+/CC1+ cells) after optic nerve crush; parameters: species or system mouse; conditions: wild type C57BL/6 mice; for pro-differentiation effect compared with the other screened compounds: 4 week treatment after optic nerve crush; for number of BrdU+ and CC1+ double positive cells (OPC differentiation) in injured optic nerves: compound once daily for 4 weeks from day 1 post optic nerve crush, BrdU daily days 4-10
[4] = test system: OPCs distal to the optic nerve injury; experiment: TNFα inhibitor treatment after optic nerve injury (BrdU/CC1/Olig2 staining, lineage reporter mice); type: in vivo, mouse
Description: The morphology is very distinct from other treatments, such as GPR17 antagonist treatment (FIG. 5E).

[5] = test system: activated microglia in injured optic nerves; experiment: Microglia depletion in injured optic nerves (CD68 immunoreactivity); type: in vivo, mouse; conditions: systemic application (food chow)
Description: FIG. 3G comprises representative images of optic nerves, from adult mice 2 weeks after unilateral optic nerve crush injury and with or without PLX3397 treatment, stained with antibodies against CD68. Scale bar: 40 μm.
FIG. 3H is a graph quantifying the CD68 immunoreactivity signal. […] mice per group. Scale bar: 40 μm. *, **, *** p<0.05, 0.01, 0.001, respectively.
(§1) Thus, it appears that microglia activation is required for injury-induced OPC proliferation.
For PDGFRα-CreER mice, Tamoxifen (100 mg/kg, p.o.) was administered for 5 days right before optic nerve crush. For OPC proliferation assays, BrdU (100 mg/kg, i.p.) was injected at 3 hours before sample collection. […]
(§2) Cryosections (12-μm thick) were permeabilized and blocked in blocking buffer (0.5% Triton X-100 and 5% normal goat serum in PBS) for 1 h at room temperature and overlaid with primary antibodies overnight at 4° C. […] For each biological sample, 3-5 sections of each optic nerve were imaged under 10× or 20×objectives for quantification. Positive cell numbers were then quantified manually using the Plugins/Analyze/Cell Counter function in ImageJ software. For fluorescent intensity analysis, the images were first converted to 8-bit depth in ImageJ software and then, the mean intensity value was calculated by the build-in function: Analyze/Measure.

[6] = test system: OPCs in injured optic nerves; experiment: OPC proliferation by BrdU/GFP/Olig2 labeling in PDGFRα-H2B-GFP mice; type: in vivo, mouse; conditions: PLX3397 from 7 days before crush, examined 14 days after injury
Description: FIG. 3I is a schematic of experiments to assess OPC proliferation with the treatment of PLX3397 (PLX) or its vehicle control (Vec) in PDGFRα-H2B-GFP mice. […]
as §1
For PDGFRα-CreER mice, Tamoxifen (100 mg/kg, p.o.) was administered for 5 days right before optic nerve crush. For OPC proliferation assays, BrdU (100 mg/kg, i.p.) was injected at 3 hours before sample collection. For drug screening assays, BrdU was injected daily from day 4 to day 10 post optic nerve crush. Each compound or the corresponding Vehicle was administered once daily for 4 weeks started from day 1 post optic nerve crush (Table 2). […]
as §2

[7] = PDGFRα-CreER/iRTM mice, Montelukast treatment for 4 weeks
[8] = PDGFRα-CreER:iRTM mice, delayed treatment from 2 to 4 weeks after injury

## CC(C)(O)c1ccccc1CC[C@@H](SCC1(CC(=O)O)CC1)c1cccc(/C=C/c2ccc3ccc(Cl)cc3n2)c1 [Montelukast]
[1]
  thickness of myelin structures: much thinner than those after PLX treatment
  regenerated axons that became myelinated: about 20%
[2]; [7]
  proportion of CC1+RTM+ cells with nuclear, but not cytoplasmic, Oligo1 immunoreactivity: 77%
  total RTM+ cell numbers: increased
[2]; PDGFRα-CreER/iRTM mice, Montelukast treatment for 4 weeks after optic nerve injury, 12% in vehicle-treated mice
  proportion of RFP+ (RTM+) cells that became CC1+: 64%
[3]
  pro-differentiation effect compared with the other screened compounds: strongest effect
  number of BrdU+ and CC1+ double positive cells (OPC differentiation) in injured optic nerves: significantly increased
[3]; listed as montelukast
  pro-differentiation effect compared with the other screened compounds: strongest

## O=C1CCC(N2C(=O)c3ccccc3C2=O)C(=O)N1 (stereo not shown) [Thalidomide]
[4]; PDGFRα-CreER/iRTM lineage reporter mice, 2 to 4 weeks post-injury
  differentiation of OPCs in lineage reporter mice: OPCs differentiated into mature myelinating oligodendrocytes
[4]; administered from 2 weeks to 4 weeks post-injury
  BrdU+/CC1+/Olig2+ cells distal to the injury: robust increase

## CN1C2CCC1CC(OC(c1ccccc1)c1ccccc1)C2 (stereo not shown) [benztropine mesylate, Benztropine mesylate]
[3]
  number of BrdU+ and CC1+ double positive cells (OPC differentiation) in injured optic nerves: significantly increased
[3]; listed as benztropine
  number of BrdU+ and CC1+ double positive cells (OPC differentiation) in injured optic nerves: significantly increased OPC differentiation

## O=C(O)CCC(=O)O.O=C(O[C@H]1CN2CCC1CC2)N1CCc2ccccc2[C@@H]1c1ccccc1 [Solifenacin, Solifenacin succinate]
[3]
  number of BrdU+ and CC1+ double positive cells (OPC differentiation) in injured optic nerves: significantly increased
[3]; listed as solifenacin
  number of BrdU+ and CC1+ double positive cells (OPC differentiation) in injured optic nerves: significantly increased OPC differentiation

## FC(F)(F)c1ccc(CNc2ccc(Cc3c[nH]c4ncc(Cl)cc34)cn2)cn1 [PLX3397, Pexidartinib]
[5]
  depletion of microglia in vivo (CD68): depleted; also recorded: specifically deplete microglia
[1]
  regenerated axons that became myelinated: about 20%
[2]; [8]
  CC1+ cells: increased
  proportion of CC1+RTM+ cells expressing cytoplasmic Oligo1: 78%
[6]
  total numbers of OPCs: profoundly reduced

## CN1CCC[C@@H]1CCO[C@](C)(c1ccccc1)c1ccc(Cl)cc1.O=C(O)/C=C/C(=O)O [clemastine, Clemastine fumarate]
[3]
  number of BrdU+ and CC1+ double positive cells (OPC differentiation) in injured optic nerves: increased CC1^+ cells, albeit the increase did not reach statistical differences

## C=C(c1ccc(C(=O)O)cc1)c1cc2c(cc1C)C(C)(C)CCC2(C)C [Bexarotene]
[3]
  number of BrdU+ and CC1+ double positive cells (OPC differentiation) in injured optic nerves: increased CC1^+ cells, albeit the increase did not reach statistical differences

## O=C(Nc1cccc2c(=O)cc(-c3nn[nH]n3)oc12)c1ccc(OCCCCc2ccccc2)cc1 [Pranlukast]
[3]
  number of BrdU+ and CC1+ double positive cells (OPC differentiation) in injured optic nerves: increased OPC differentiation but did not reach statistical significance
